From patent publication US12331051B2 (priority 2021, dated 2025) come the findings set out here.

SMILES strings stand for the structures. “Also recorded” adds a separate entry of the source. Like-named read-outs stand apart in the source and are kept apart here.

For experiment [1], the target named is T1, 5-HT2A receptor (Homo sapiens, UniProt P28223). As to the kind of experiment: 5-HT2A receptor internalization, NanoBit HiBit-fused 5-HT2A in HEK293T cells. On the set-up: expressed in transfected cells; host or cells: HEK293T. Type of experiment: cell-based. On the procedure: To assess the ability of the “E559 polymorph” to induce β-arrestin-mediated 5-HT2A receptor internalization in vitro, the loss of surface expression of 5-HT2A receptor was measured using a NanoBit N-terminal HiBit-fused 5-HT2A construct cloned in HEK293T cells (1:15 ratio 5-HT2A: β-arrestin2). In brief, cells were treated with serial dilution of test compounds for 1 hour or a specified time point.
For orientation: With HiBiT, luminescence reflects the tagged protein that the partner subunit can reach.

Experiment [2] concerns the target T2, ADRa1A (α1A adrenergic receptor) (Homo sapiens, UniProt P35348).
T2 sequence (P35348 1-466): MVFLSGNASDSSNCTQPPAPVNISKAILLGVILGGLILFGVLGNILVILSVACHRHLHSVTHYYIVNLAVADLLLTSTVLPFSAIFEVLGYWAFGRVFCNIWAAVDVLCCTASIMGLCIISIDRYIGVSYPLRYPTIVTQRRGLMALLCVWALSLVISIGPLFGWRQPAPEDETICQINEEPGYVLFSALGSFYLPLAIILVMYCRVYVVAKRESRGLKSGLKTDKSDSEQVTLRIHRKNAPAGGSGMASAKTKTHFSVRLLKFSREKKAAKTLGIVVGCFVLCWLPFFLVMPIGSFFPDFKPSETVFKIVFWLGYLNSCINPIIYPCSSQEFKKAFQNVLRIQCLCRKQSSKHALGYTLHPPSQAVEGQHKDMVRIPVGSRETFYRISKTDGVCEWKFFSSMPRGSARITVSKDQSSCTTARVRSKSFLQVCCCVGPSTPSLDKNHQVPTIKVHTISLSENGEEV
As to the kind of experiment: BRET-based G protein dissociation assay. Type of experiment: cell-based.

For a further experiment, the target named is 5-HT6 (Homo sapiens, UniProt P50406). Put plainly: G protein dissociation and cAMP accumulation second messenger assays. Type of experiment: cell-based. Further details: expressed in transfected cells; host or cells: HEK293T. Background: Cyclic AMP is a second messenger, typically raised through Gs and lowered through Gi signalling.
In another experiment the target is T3, 5-HT4 receptor (Homo sapiens, UniProt Q13639).
T3 construct: expressed in transfected cells; host or cells: HEK293T
As to the kind of experiment: G protein dissociation assay. Type of experiment: cell-based. Conditions: FIG. 15.

The target of experiment [3] is T1, 5-HT2A receptor.
Experiment [4] deals with H4 histaminergic receptor (Homo sapiens, UniProt Q9H3N8). Put plainly: BRET-based G protein dissociation assay. It counts as cell-based.
Another experiment deals with T4, 5-HT7 receptor (Homo sapiens, UniProt P34969).
T4 construct: expressed in transfected cells; host or cells: HEK293T
As to the kind of experiment: G protein dissociation and cAMP accumulation second messenger assays. Type of experiment: cell-based.

Experiment [5] concerns the target T5, CHRM4 (M4 muscarinic receptor) (Homo sapiens, UniProt P08173).
T5 sequence (P08173 1-479): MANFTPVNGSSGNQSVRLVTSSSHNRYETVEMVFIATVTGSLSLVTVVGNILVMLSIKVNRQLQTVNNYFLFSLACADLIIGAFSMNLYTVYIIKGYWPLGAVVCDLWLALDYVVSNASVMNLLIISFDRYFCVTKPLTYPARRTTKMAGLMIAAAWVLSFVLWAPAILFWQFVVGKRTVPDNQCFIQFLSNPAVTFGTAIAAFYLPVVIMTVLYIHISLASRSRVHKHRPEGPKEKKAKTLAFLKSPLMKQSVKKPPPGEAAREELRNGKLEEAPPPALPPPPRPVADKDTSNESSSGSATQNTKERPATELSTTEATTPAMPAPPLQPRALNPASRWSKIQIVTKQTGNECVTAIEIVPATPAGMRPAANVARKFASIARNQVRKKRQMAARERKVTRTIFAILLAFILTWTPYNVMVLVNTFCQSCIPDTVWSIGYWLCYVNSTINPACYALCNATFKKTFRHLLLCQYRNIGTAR
Put plainly: BRET-based G protein dissociation assay. Type of experiment: cell-based. Background: BRET reads energy transfer from a luciferase to a nearby fluorophore.

Experiment [6] addresses T1, 5-HT2A receptor. This is another data set of the same source.
Experiment [7] addresses CHRM1 (M1 muscarinic receptor) (Homo sapiens, UniProt P11229). As to the kind of experiment: BRET-based G protein dissociation assay. Type of experiment: cell-based.
Another experiment concerns male C57BL/6J mice. Put plainly: Head-twitch response (HTR) mouse model. Type of experiment: in vivo. On the procedure: The HTR mouse model is widely used as a proxy behavioral assay for hallucinogenic activity in humans [Halbertstad et al., Neuropharmacology, 2020, V167: 107933; Halberstadt et. al., Psychopharmacology (Berl). 2013, 227(4):727-39].
The magnet implants mounting and magnetometer assessments were conducted as described previously (Halberstadt et al., Psychopharmacology (Berl). 2013 227(4): 727-739). Data are represented as group means±standard deviation for the entire 60 minutes test session (FIG. 10A) and individual data points per 2 minutes blocks (FIG. 10B). Asterisks indicate statistical significances compared to the control (0 mg/kg).

Experiment [8] deals with H2 histaminergic receptor (Homo sapiens, UniProt P25021). As to the kind of experiment: BRET-based G protein dissociation assay. It counts as cell-based.
The target in experiment [9] is CHRM5 (M5 muscarinic receptor) (Homo sapiens, UniProt P08912). Put plainly: BRET-based G protein dissociation assay. Type of experiment: cell-based.
In a further experiment the target is D2 dopamine receptor (Homo sapiens, UniProt P14416). Put plainly: BRET-based G protein dissociation assay. Type of experiment: cell-based.
A further experiment has as its target D5 dopamine receptor (Homo sapiens, UniProt P21918). Put plainly: BRET-based G protein dissociation assay. It counts as cell-based.
Experiment [10] has as its target CHRM2 (M2 muscarinic receptor) (Homo sapiens, UniProt P08172). Put plainly: BRET-based G protein dissociation assay. Type of experiment: cell-based.
[11] abbreviates: percentage of the reference ligand-induced maximal response, read-out: Emax.

As usually defined, the EC50 is the midpoint of the concentration-response curve. By Emax is commonly meant the greatest response seen or fitted, relative to the assay's reference.

H2 histaminergic receptor, sequence (P25021 whole entry): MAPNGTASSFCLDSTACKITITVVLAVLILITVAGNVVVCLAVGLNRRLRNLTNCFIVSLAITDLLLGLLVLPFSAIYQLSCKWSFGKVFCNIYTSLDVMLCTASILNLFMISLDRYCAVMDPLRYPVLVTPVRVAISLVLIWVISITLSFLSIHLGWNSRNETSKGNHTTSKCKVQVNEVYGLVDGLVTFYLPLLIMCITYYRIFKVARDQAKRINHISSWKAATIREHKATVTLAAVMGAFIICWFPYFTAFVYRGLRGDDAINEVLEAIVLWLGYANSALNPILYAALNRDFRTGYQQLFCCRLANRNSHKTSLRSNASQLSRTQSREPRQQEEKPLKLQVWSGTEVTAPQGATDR
T1 sequence (P28223 whole entry, the tested form may be a part): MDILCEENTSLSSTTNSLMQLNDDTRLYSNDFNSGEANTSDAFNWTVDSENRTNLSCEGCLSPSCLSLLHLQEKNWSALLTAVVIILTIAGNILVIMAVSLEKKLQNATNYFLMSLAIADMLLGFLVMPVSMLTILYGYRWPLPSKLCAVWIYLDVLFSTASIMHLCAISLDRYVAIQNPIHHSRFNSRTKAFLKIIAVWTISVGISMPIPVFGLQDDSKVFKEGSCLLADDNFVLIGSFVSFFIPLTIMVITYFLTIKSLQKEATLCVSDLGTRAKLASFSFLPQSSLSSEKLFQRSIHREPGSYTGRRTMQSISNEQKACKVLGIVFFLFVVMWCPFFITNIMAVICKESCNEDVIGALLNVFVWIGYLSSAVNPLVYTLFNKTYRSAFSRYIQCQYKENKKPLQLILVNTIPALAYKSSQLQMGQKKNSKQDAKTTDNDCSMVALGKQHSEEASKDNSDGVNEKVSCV
D2 dopamine receptor, sequence (P14416 whole entry): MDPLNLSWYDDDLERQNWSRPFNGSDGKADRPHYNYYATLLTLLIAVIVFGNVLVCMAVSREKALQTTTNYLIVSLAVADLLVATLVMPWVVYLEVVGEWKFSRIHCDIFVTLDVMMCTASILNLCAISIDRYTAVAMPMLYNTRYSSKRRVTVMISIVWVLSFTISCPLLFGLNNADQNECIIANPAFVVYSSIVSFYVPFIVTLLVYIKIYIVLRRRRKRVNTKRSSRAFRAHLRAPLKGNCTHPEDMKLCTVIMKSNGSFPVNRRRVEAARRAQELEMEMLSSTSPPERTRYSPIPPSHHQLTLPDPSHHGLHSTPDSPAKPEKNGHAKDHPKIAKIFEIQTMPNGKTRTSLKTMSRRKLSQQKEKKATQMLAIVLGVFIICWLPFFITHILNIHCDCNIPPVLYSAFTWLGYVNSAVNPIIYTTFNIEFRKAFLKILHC
D5 dopamine receptor, sequence (P21918 whole entry): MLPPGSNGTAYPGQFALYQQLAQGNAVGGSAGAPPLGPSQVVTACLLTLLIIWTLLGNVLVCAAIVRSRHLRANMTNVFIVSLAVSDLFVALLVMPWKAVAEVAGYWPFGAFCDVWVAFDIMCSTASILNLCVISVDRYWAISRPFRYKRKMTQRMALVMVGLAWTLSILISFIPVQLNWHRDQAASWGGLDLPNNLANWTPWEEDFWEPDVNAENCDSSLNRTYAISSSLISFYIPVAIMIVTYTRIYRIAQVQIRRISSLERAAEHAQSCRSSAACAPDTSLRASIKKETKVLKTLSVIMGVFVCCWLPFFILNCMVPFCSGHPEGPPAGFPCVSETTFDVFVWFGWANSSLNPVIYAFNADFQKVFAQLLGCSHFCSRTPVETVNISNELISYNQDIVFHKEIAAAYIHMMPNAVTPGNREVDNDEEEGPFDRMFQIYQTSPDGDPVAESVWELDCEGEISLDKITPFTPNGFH
H4 histaminergic receptor, sequence (Q9H3N8 whole entry): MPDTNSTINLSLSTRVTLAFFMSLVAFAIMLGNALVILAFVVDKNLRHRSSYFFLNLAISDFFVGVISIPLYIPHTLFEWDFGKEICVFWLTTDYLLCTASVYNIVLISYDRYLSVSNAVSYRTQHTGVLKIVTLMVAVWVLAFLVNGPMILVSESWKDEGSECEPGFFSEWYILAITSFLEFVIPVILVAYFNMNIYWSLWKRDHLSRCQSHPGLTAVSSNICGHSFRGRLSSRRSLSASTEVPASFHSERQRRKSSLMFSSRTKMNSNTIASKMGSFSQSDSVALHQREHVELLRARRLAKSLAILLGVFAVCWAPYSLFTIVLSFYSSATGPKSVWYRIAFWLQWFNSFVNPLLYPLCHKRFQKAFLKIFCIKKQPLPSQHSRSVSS
T4 sequence (P34969 1-445 isoform P34969-2): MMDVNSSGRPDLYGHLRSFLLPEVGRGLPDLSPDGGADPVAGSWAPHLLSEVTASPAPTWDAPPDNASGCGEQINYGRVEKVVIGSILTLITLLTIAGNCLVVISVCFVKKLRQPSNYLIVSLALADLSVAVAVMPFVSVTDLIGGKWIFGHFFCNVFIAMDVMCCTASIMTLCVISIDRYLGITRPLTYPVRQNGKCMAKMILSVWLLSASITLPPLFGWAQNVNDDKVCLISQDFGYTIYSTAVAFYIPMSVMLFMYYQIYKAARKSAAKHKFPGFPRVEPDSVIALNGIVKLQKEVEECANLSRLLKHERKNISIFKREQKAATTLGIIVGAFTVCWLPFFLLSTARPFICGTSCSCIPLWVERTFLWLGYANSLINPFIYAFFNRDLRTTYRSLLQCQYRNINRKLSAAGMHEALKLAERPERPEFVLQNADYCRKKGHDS
CHRM5 (M5 muscarinic receptor), sequence (P08912 whole entry): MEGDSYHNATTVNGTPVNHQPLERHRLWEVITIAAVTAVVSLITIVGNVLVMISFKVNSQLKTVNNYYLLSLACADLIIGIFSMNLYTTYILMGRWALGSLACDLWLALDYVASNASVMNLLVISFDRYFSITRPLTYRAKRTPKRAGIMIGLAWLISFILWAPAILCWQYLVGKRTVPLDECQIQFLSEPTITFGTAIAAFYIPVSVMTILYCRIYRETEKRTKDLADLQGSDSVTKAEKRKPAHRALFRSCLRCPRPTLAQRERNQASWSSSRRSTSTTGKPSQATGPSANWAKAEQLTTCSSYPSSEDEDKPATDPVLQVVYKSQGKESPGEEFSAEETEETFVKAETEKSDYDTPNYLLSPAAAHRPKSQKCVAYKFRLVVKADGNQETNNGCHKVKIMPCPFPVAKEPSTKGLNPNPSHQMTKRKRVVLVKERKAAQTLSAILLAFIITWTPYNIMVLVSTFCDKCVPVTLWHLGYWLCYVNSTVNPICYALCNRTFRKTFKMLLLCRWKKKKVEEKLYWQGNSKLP
CHRM1 (M1 muscarinic receptor), sequence (P11229 whole entry): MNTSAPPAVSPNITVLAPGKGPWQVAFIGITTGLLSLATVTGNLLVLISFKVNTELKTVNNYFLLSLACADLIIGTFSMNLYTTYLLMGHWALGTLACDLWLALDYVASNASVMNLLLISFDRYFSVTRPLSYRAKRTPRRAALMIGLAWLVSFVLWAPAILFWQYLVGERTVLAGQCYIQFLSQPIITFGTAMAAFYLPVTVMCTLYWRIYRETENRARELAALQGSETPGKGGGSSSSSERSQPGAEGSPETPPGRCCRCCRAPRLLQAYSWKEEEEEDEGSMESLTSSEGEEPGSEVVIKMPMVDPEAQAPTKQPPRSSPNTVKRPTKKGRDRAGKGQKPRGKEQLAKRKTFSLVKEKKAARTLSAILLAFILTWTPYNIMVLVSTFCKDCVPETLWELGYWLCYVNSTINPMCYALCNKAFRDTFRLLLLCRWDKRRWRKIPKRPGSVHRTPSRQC
5-HT6, sequence (P50406 whole entry): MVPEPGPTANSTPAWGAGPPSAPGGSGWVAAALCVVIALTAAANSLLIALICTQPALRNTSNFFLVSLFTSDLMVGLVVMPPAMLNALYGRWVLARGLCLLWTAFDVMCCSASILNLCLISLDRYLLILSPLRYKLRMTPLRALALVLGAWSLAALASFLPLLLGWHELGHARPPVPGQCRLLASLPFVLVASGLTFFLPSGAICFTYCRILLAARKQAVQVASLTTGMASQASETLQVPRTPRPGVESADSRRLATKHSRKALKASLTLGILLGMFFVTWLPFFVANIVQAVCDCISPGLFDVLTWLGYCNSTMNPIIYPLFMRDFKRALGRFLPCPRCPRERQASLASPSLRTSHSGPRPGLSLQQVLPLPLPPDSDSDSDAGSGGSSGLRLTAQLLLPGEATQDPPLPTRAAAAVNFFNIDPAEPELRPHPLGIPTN
T3 sequence (Q13639 whole entry): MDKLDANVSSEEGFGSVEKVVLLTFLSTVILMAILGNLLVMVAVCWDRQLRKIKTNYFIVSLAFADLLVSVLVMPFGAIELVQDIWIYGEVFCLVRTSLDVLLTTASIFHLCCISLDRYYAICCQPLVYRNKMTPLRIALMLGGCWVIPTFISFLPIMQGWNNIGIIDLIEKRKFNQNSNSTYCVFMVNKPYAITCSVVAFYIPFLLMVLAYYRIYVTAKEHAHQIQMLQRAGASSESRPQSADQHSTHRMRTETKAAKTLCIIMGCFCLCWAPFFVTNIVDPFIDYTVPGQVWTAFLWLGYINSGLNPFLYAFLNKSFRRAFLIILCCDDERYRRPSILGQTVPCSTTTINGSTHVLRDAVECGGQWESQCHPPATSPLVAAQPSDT
CHRM2 (M2 muscarinic receptor), sequence (P08172 whole entry): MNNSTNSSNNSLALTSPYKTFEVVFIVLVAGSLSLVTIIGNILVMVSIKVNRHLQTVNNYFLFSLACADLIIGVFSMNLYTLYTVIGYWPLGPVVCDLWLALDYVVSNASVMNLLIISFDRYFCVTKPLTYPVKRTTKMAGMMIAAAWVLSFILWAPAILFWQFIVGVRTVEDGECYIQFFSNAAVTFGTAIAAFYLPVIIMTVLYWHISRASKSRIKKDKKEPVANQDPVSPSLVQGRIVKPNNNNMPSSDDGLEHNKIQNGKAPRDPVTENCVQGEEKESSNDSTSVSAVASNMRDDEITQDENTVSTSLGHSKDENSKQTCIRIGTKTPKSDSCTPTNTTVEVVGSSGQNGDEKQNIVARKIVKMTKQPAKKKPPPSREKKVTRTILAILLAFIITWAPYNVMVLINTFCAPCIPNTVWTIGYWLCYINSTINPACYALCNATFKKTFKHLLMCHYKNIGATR

Take `CCN(CC)C(=O)[C@@H]1C=C2c3cccc4[nH]cc(c34)C[C@H]2N(C)C1` [LSD, lysergic acid diethylamide, reference compound]: the “internalization of the 5-HT2A receptor (loss of surface expression)” value on 5-HT2A receptor [1] is “potent internalization”. Further, the EC50 in experiment [2] (agonist mode, read-out: EC50) is 38.5 nM; in experiment [4] (agonist mode) it was 0.09 nM; in experiment [5] (agonist mode, read-out: EC50) it was 454 nM; in [7] (agonist mode, read-out: EC50) it was 211 nM; in experiment [8] (agonist mode, read-out: EC50) it was greater than 10000 nM; in experiment [9] (agonist mode, read-out: EC50), greater than 10000 nM. Moreover, the EC50 at D2 dopamine receptor was 2.17 nM; on D5 dopamine receptor (agonist mode, read-out: EC50), 166 nM; in [10] (agonist mode, read-out: EC50), greater than 10000 nM. The maximal response (Emax) in [2] (percentage of the reference ligand-induced maximal response) was found to be 24.8%; in [4] (setting [11]), 15%; in [8] (setting [11]), 21.2%; at D2 dopamine receptor, 86%; on D5 dopamine receptor (setting [11]), 70.7%. At 5-HT6, the “functional activity at 5-HT6” value is “acts as a very potent partial agonist”. Further, at 5-HT4 receptor, the “functional activity at 5-HT4” value is recorded as “lack potent agonist activity at 5-HT4 receptor”. The “functional (agonist) activity at 5-HT2A” value at 5-HT2A receptor [3] is on record as “potent almost full 5-HT2A agonist”. Further, at 5-HT7 receptor, the “functional activity at 5-HT7” value was “act as potent antagonist and inverse agonists”. Further, the “β-Arrestin2 recruitment at the 5-HT2A receptor” value at 5-HT2A receptor [6] is listed as “strong recruiters of β-Arrestin2”. Also, the “head-twitch response (HTR)” value in the experiment with male C57BL/6J mice (mouse, in vivo) is listed as “elicited a strong HTR”.

As to `CCN(CC)C(=O)[C@@H]1C=C2c3cccc4[nH]c(Br)c(c34)C[C@H]2N(C)C1` [E559, (5R, 8R)-2-Bromo-9,10-didehydro-N,N-diethyl-6-methylergoline-8-carboxamide hemi-D-tartrate], the “internalization of the 5-HT2A receptor (loss of surface expression)” value at 5-HT2A receptor [1] (single 1 hour treatment) was “only exhibits weak internalization of the 5-HT2A receptor”. Also, the EC50 in [2] was 25 nM; in experiment [5] it was 0.04 nM; in experiment [7], 2.96 nM; in experiment [8] it was 296 nM; in experiment [9] it was 5820 nM; at D2 dopamine receptor it was 0.35 nM. Moreover, the EC50 at D5 dopamine receptor came to 3.75 nM; in experiment [10], 214 nM. Moreover, the results for the Kb (in experiment [2]; in experiment [8]; on D5 dopamine receptor) were 56.9 nM, 5190 nM and 25.1 nM, respectively. In addition, on 5-HT6 (FIG. 15, FIG. 16A/B), the “functional activity at 5-HT6” value is “acts as a very potent partial agonist”. For the same compound, the “functional activity at 5-HT4” value on 5-HT4 receptor was “lack potent agonist activity at 5-HT4 receptor”. In addition, on 5-HT2A receptor [3] (FIG. 15, FIG. 16A/B), the “functional (agonist) activity at 5-HT2A” value is “potent partial agonist of 5-HT2A”. The “antagonism of 5-HT activation of 5-HT2A” value on 5-HT2A receptor [3] (Gq dissociation and β-arrestin2 recruitment, FIG. 17A/B) is given as “antagonizes the 5-HT activation”. The Emax was determined as 17.4% in [4]; 15.6% in experiment [5]; 28.8% in experiment [8]; 77.4% on D2 dopamine receptor; 15.6% at D5 dopamine receptor. Moreover, the “functional activity at 5-HT7” value at 5-HT7 receptor (FIG. 15, FIG. 16A/B, listed as E559 polymorph) was “act as potent antagonist and inverse agonists; also recorded: exhibits significantly greater inverse agonism than LSD”. In addition, the “β-Arrestin2 recruitment at the 5-HT2A receptor” value on 5-HT2A receptor [6] (percentage of the 5-HT-induced maximal response) was “weak recruiter of β-Arrestin2”. Also, in the experiment on male C57BL/6J mice (IP, E559 polymorph 0.1-10 mg/kg, LSD 0.1 mg/kg, 60 minutes), the “head-twitch response (HTR)” value is on record as “negative in HTR at all doses tested; also recorded: did not induce HTR above baseline at any tested dose”.
